Inhibition in vivo data for 9 molecules are collected here from patent publication US20100125059A1, “1-BIARYLAZETIDINONE DERIVATIVE” (Teijin Pharma Limited, priority 2007, published 2010).

Read-outs that look alike come from different tables or passages of the source. Bounds are passed on as bounds.

This test concerns hamsters fed a high cholesterol diet. In words: Measurement of lipid lowering effect in hamsters fed a high cholesterol diet. The class given is in vivo, Male Golden Syrian hamsters. The settings on record: Mesocricetus auratus, po, 168 h, gavage once daily, 7 days. As for the experimental part: Male Golden Syrian hamsters are divided into groups each consisting of 6 animals and fed a controlled high cholesterol diet (CE-2 containing 0.5% cholesterol; CLEA Japan, Inc.) for 28 days at most. From the start of feeding of the high cholesterol diet, the test compounds are administered by gavage once daily. For the administration, 0.2 mL of corn oil alone per 100 g (control group) or a solution (or suspension) of the test compound in corn oil at a dose of 0.01 to 10 mg/kg was given. At the same time, a group fed with a normal diet during the same study period is handled as a normal group. 4 hours after the last administration, whole blood is collected from the abdominal aorta under light anesthesia with ether and serum is separated from the blood. Further, livers are harvested, wet liver weights are measured, and part (about 0.5 g) of the harvested livers are extracted and weighed. 2-propanol in an amount 4 times the weight of the extracted livers are added, the resulted mixtures are homogenized, and the centrifuged supernatant are recovered and used as liver-derived samples.
Serum and liver TC concentrations are determined by an enzyme method using L-type Wako CHO•H (Wako Pure Chemical Industries Ltd.) or Cholestest CHO (Daiichi Pure Chemicals Co., Ltd.). Serum TG concentrations are determined by an enzyme method using L-type Wako TG•H (Wako Pure Chemical Industries Ltd.) or Autosera S TG-N (Daiichi Pure Chemicals Co., Ltd.) and a free glycerine elimination method. LDL-C concentrations are determined by a direct method using L-type Wako LDL-C•M (Wako Pure Chemical Industries Ltd.) or Cholestest LDL (Daiichi Pure Chemicals Co., Ltd.). Human serum was commonly used as a sample for the calibration curve for determinations of serum and liver TC concentrations, serum TG concentration, and serum LDL-C concentration. The effect of the test compound is shown by a suppression rate (%) of an increase in serum TC concentration due to feeding of the high cholesterol diet, a serum TG lowering rate (%), a suppression rate (%) of an increase in serum LDL-C concentration due to feeding of the high cholesterol diet, and a suppression rate (%) of an increase in liver TC concentration due to feeding of the high cholesterol diet calculated in accordance with the following equations.
In the Equation 2, A is the control group, B is the test compound group, and C is the normal group.
In the Equation 3, A is the control group, B is the test compound group, and C is the normal group.
In the Equation 4, A is the control group, B is the test compound group, and C is the normal group.
In the Equation 5, A is the control group, and B is the test compound group.
The following results were obtained from the study by this method on the effects of lowering serum TC, LDL-C, and TG, and liver TC in the hamsters fed with a high cholesterol diet which were given the test compounds for 7 days.
The compounds in which pyridyl of compound of example 51 and 55 was exchanged for phenyl, were used as comparative compound 1 and 2, respectively. In the same method as Example 112, the suppression rate (%) of an increase in serum TC concentration of comparative compound 1 and 2 were calculated.

Where [1] appears, read: read-out: liver TC lowering effect (suppression rate of an increase in liver TC concentration).
Setting [2] is: read-out: serum TC lowering effect (suppression rate of an increase in serum TC concentration).
[3] abbreviates: read-out: serum LDL-C lowering effect (suppression rate of an increase in serum LDL-C concentration).

For the molecule `Cc1cc(O)ccc1[C@@H]1[C@@H](SC[C@H](O)c2ccc(F)cc2)C(=O)N1c1ccc(-c2cncc(F)c2)cc1` [Example 74, (3R,4R)-3-[(2R)-2-(4-fluorophenyl)-2-hydroxyethylthio]-1-[4-(5-fluoropyridin-3-yl)phenyl]-4-(4-hydroxy-2-methylphenyl)azetidin-2-one], the inhibition in vivo at 0.01 mg/kg under setting [1] was not below 30% and the inhibition in vivo at 0.01 mg/kg under setting [2] was not below 30%. Moreover, the inhibition in vivo at 0.1 mg/kg under setting [1] was not below 50% and the inhibition in vivo at 0.1 mg/kg under setting [3] is not below 50%.
Consider `O=C1[C@H](SC[C@H](O)c2ccc(Cl)cc2)[C@@H](c2ccc(O)cc2)N1c1ccc(-c2cncc(F)c2)cc1` [Example 70, (3R,4R)-3-[(2R)-2-(4-chlorophenyl)-2-hydroxyethylthio]-1-[4-(5-fluoropyridin-3-yl)phenyl]-4-(4-hydroxyphenyl)azetidin-2-one], for which the inhibition in vivo at 0.01 mg/kg is not below 30% under setting [3] and not below 30% under setting [2]. Under setting [1], the inhibition in vivo at 0.1 mg/kg was not below 50%.
Regarding `Cc1cncc(-c2ccc(N3C(=O)[C@H](SC[C@H](O)c4ccc(F)cc4)[C@H]3c3ccc(O)cc3)cc2)c1` [Example 68, (3R,4R)-3-[(2R)-2-(4-fluorophenyl)-2-hydroxyethylthio]-4-(4-hydroxyphenyl)-1-[4-(5-methylpyridin-3-yl)phenyl]azetidin-2-one], the inhibition in vivo at 0.01 mg/kg under setting [2] is not below 30%. The inhibition in vivo at 0.1 mg/kg under setting [3] is not below 50%.
As to `Cc1ccc(-c2ccc(N3C(=O)[C@H](SC[C@H](O)c4ccc(Cl)cc4)[C@H]3c3ccc(O)cc3O)cc2)cn1` [Example 98, (3R,4R)-3-[(2R)-2-(4-chlorophenyl)-2-hydroxyethylthio]-4-(2,4-dihydroxyphenyl)-1-[4-(6-methylpyridin-3-yl)phenyl]azetidin-2-one], the inhibition in vivo at 0.01 mg/kg under setting [3] was not below 30%.
On to `O=C1[C@H](SC[C@H](O)c2ccc(Cl)cc2)[C@@H](c2ccc(O)cc2O)N1c1ccc(-c2cncc(F)c2)cc1` [Example 72, (3R,4R)-3-[(2R)-2-(4-chlorophenyl)-2-hydroxyethylthio]-4-(2,4-dihydroxyphenyl)-1-[4-(5-fluoropyridin-3-yl)phenyl]azetidin-2-one], for which the inhibition in vivo at 0.1 mg/kg under setting [3] was not below 50% and the inhibition in vivo at 0.1 mg/kg under setting [2] is not below 50%.
`N#Cc1ncc(-c2ccc(N3C(=O)[C@H](SC[C@H](O)c4ccc(F)cc4)[C@H]3c3ccc(O)cc3)cc2)cn1` [Example 103, 5-(4-{(3R,4R)-3-[(2R)-2-(4-fluorophenyl)-2-hydroxyethylthio]-4-(4-hydroxyphenyl)-2-oxoazetidinyl}phenyl)pyrimidine-2-carbonitrile]: the inhibition in vivo at 0.1 mg/kg (read-out: serum TG lowering effect (serum TG lowering rate)) was not below 20%.
`O=C1[C@H](SC[C@H](O)c2ccc(Cl)cc2)[C@@H](c2ccc(O)cc2)N1c1ccc(-c2cncnc2)cc1` [Example 69, (3R,4R)-3-[(2R)-2-(4-chlorophenyl)-2-hydroxyethylthio]-4-(4-hydroxyphenyl)-1-[4-(pyrimidin-5-yl)phenyl]azetidin-2-one]: the inhibition in vivo at 0.01 mg/kg by setting is: under setting [3], not below 30%; under setting [2], not below 30%.
Regarding `O=Cc1cncc(-c2ccc(N3C(=O)[C@H](SC[C@H](O)c4ccc(F)cc4)[C@H]3c3ccc(O)cc3)cc2)c1` [Example 71, 5-(4-{(3R,4R)-3-[(2R)-2-(4-fluorophenyl)-2-hydroxyethylthio]-4-(4-hydroxyphenyl)-2-oxoazetidinyl}phenyl)pyridine-3-carbaldehyde], the inhibition in vivo at 0.1 mg/kg under setting [3] was not below 50% and the inhibition in vivo at 0.1 mg/kg under setting [2] is not below 50%.
`Cc1cc(Cl)ccc1[C@@H](O)CS[C@H]1C(=O)N(c2ccc(-c3cccnc3)cc2)[C@@H]1c1ccc(O)cc1` [Example 102, (3R,4R)-3-[(2R)-2-(4-chloro-2-methylphenyl)-2-hydroxyethylthio]-4-(4-hydroxyphenyl)-1-[4-(pyridin-3-yl)phenyl]azetidin-2-one]: the inhibition in vivo at 0.1 mg/kg under setting [1] is not below 50%, the inhibition in vivo at 0.1 mg/kg under setting [3] is not below 50% and the inhibition in vivo at 0.1 mg/kg under setting [2] was not below 50%.
